In PubChem BioAssay (NCI):
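Where inhibition never reached the appropriate level, the endpoint shown equals the highest concentration tested. Otherwise, values were interpolated linearly from a five-concentration, 48-hour dose response in 96-well plates. Abbreviation: GI50, concentration required for 50% inhibition of growth. The concentration for full growth arrest is given as TGI.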

Assays:
Test in all cases: NCI tumour cell line growth inhibition, 48 h
[1] = tested on: MDA-MB-435
[2] = tested on: HS 578T breast
[3] = tested on: HCT-116 colon
[4] = tested on: OVCAR-5 ovarian
[5] = tested on: RXF 393 renal
[6] = tested on: SW-620 colon
[7] = tested on: KM12 colon
[8] = tested on: SR leukemia
[9] = tested on: LOX IMVI melanoma
[10] = tested on: SK-MEL-2 melanoma
[11] = tested on: HL-60(TB) leukemia
[12] = tested on: CAKI-1 renal
[13] = tested on: OVCAR-4 ovarian
[14] = tested on: BT-549 breast
[15] = tested on: SNB-75 CNS
[16] = tested on: MCF7 breast
[17] = tested on: 786-0 renal
[18] = tested on: NCI-H23 lung
[19] = tested on: HOP-92 NSCLC
[20] = tested on: IGROV1 ovarian
[21] = tested on: SK-OV-3 ovarian
[22] = tested on: NCI-H522 lung
[23] = tested on: DU-145 prostate
[24] = tested on: TK-10 renal
[25] = tested on: NCI/ADR-RES ovarian
[26] = tested on: SN12C renal
[27] = tested on: NCI-H460 lung
[28] = tested on: SF-295 CNS
[29] = tested on: T-47D breast
[30] = tested on: A549 NSCLC
[31] = tested on: MDA-MB-231 breast
[32] = tested on: OVCAR-8 ovarian
[33] = tested on: SF-268 CNS
[34] = tested on: HCC-2998 colon
[35] = tested on: OVCAR-3 ovarian
[36] = tested on: MALME-3M melanoma
[37] = tested on: CCRF-CEM leukemia
[38] = tested on: UACC-62 melanoma
[39] = tested on: ACHN renal
[40] = tested on: SF-539 CNS
[41] = tested on: HT29 colon
[42] = tested on: SNB-19 CNS
[43] = tested on: NCI-H226 lung
[44] = tested on: SK-MEL-28 melanoma
[45] = tested on: UACC-257 melanoma
[46] = tested on: PC-3 prostate
[47] = tested on: HCT-15 colon
[48] = tested on: U251 CNS
[49] = tested on: UO-31 renal
[50] = tested on: M14 melanoma
[51] = tested on: A498 renal
[52] = tested on: K-562 leukemia
[53] = tested on: EKVX NSCLC
[54] = tested on: SK-MEL-5 melanoma
[55] = tested on: MOLT-4 leukemia
[56] = tested on: HOP-62 NSCLC
[57] = tested on: RPMI-8226 leukemia
[58] = tested on: COLO 205 colon

SMILES: Nc1n[nH]c2cccc(C#Cc3cccc(NC(=O)c4ccc(N5CCOCC5)c(C(F)(F)F)c4)c3)c12
- GI50 [1]: 1090 nM
- TGI [1]: 3310 nM
- GI50 [2]: 508 nM
- TGI [2]: 3770 nM
- GI50 [3]: 653 nM
- TGI [3]: 2330 nM
- GI50 [4]: 599 nM
- TGI [4]: 5260 nM
- GI50 [5]: 1020 nM
- TGI [5]: 2830 nM
- GI50 [6]: 1130 nM
- TGI [6]: 5950 nM
- GI50 [7]: 1290 nM
- TGI [7]: 2910 nM
- GI50 [8]: 2400 nM
- TGI [8]: > 100000 nM
- GI50 [9]: 944 nM
- TGI [9]: 2160 nM
- GI50 [10]: 855 nM
- TGI [10]: 3250 nM
- GI50 [11]: 1400 nM
- TGI [11]: 10500 nM
- GI50 [12]: 1130 nM
- TGI [12]: 2910 nM
- GI50 [13]: 1060 nM
- TGI [13]: 2980 nM
- GI50 [14]: 2080 nM
- TGI [14]: 6800 nM
- GI50 [15]: 1070 nM
- TGI [15]: 2470 nM
- GI50 [16]: 1800 nM
- TGI [16]: 7860 nM
- GI50 [17]: 2840 nM
- TGI [17]: 7840 nM
- GI50 [18]: 1370 nM
- TGI [18]: 4600 nM
- GI50 [19]: 768 nM
- TGI [19]: 3140 nM
- GI50 [20]: 682 nM
- TGI [20]: 3540 nM
- GI50 [21]: 2090 nM
- TGI [21]: 5250 nM
- GI50 [22]: 1150 nM
- TGI [22]: 3560 nM
- GI50 [23]: 1810 nM
- TGI [23]: 4370 nM
- GI50 [24]: 2050 nM
- TGI [24]: 4400 nM
- GI50 [25]: 2250 nM
- TGI [25]: 7650 nM
- GI50 [26]: 1560 nM
- TGI [26]: 5800 nM
- GI50 [27]: 1460 nM
- TGI [27]: 3190 nM
- GI50 [28]: 1370 nM
- TGI [28]: 5200 nM
- GI50 [29]: 1060 nM
- TGI [29]: 3680 nM
- GI50 [30]: 1800 nM
- TGI [30]: 6050 nM
- GI50 [31]: 720 nM
- TGI [31]: 2600 nM
- GI50 [32]: 1920 nM
- TGI [32]: 6830 nM
- GI50 [33]: 1300 nM
- TGI [33]: 5350 nM
- GI50 [34]: 1320 nM
- TGI [34]: 3150 nM
- GI50 [35]: 1490 nM
- TGI [35]: 5060 nM
- GI50 [36]: 540 nM
- TGI [36]: 2120 nM
- GI50 [37]: 1360 nM
- TGI [37]: 6580 nM
- GI50 [38]: 622 nM
- TGI [38]: 2550 nM
- GI50 [39]: 725 nM
- TGI [39]: 4780 nM
- GI50 [40]: 310 nM
- TGI [40]: 1540 nM
- GI50 [41]: 632 nM
- TGI [41]: 4550 nM
- GI50 [42]: 2750 nM
- TGI [42]: 7390 nM
- GI50 [43]: 68.7 nM
- TGI [43]: 8530 nM
- GI50 [44]: 867 nM
- TGI [44]: 2720 nM
- GI50 [45]: 1770 nM
- TGI [45]: 4380 nM
- GI50 [46]: 1930 nM
- TGI [46]: 6830 nM
- GI50 [47]: 1540 nM
- TGI [47]: 6440 nM
- GI50 [48]: 2060 nM
- TGI [48]: 7410 nM
- GI50 [49]: 567 nM
- TGI [49]: 2920 nM
- GI50 [50]: 473 nM
- TGI [50]: 2200 nM
- GI50 [51]: 384 nM
- TGI [51]: 2090 nM
- TGI [52]: 13500 nM
- GI50 [53]: 1610 nM
- TGI [53]: 4170 nM
- GI50 [54]: 1560 nM
- TGI [54]: 3000 nM
- GI50 [55]: 1310 nM
- TGI [55]: 5710 nM
- GI50 [56]: 1490 nM
- TGI [56]: 4390 nM
- GI50 [57]: 1980 nM
- TGI [57]: 6500 nM
- GI50 [58]: 525 nM
- TGI [58]: 2330 nM
